These results are taken from ChEMBL document CHEMBL1136948, “Non-nucleoside inhibitors of HCV NS5B polymerase. Part 1: Synthetic and computational exploration of the binding modes of benzothiadiazine and 1,4-benzothiazine HCV NS5b polymerase inhibitors” (Bioorg Med Chem Lett, 2009).

Some results are limits rather than exact numbers.

Data set [1] has as its system Hepatitis C virus. Kind of data set: Inhibition of HCV 1b NS5B polymerase. The class given is organism-based, Hepatitis C virus subtype 1b.
The test system of data set [2] is Hepatitis C virus. Kind of data set: Antiviral activity against HCV 1b replication in human 2209-23 cells assessed as [3H]thymidine incorporation into cellular DNA by scintillation proximity assay. It counts as functional, organism-based, Hepacivirus hominis. To be noted: genotype 1b.
A short description of data set [3]: Apparent permeability across human Caco-2 cells after 7 days. It counts as ADME, cell-based.
A short description of data set [4]: Apparent permeability from apical to basolateral side of human Caco-2 cells after 21 days.
Data set [5] is described as follows: Apparent permeability from basolateral to apical side of human Caco-2 cells after 21 days.
Data set [6] concerns Hepatitis C virus. Put plainly: Inhibition of HCV 1b J4 NS5B Cdelta 21polymerase over expressed in Escherichia coli assessed as [alpha33P]UTP incorporation. More on the design: species or system Hepatitis C virus subtype 1b.
Data set [7] has as its system Hepatitis C virus. Kind of data set: Antiviral activity against HCV in human HuH7 cells by replicon assay. The following applies: Huh-7. It counts as functional, organism-based, Hepacivirus hominis.

Turning to `O=c1c(C2=CS(=O)(=O)c3ccccc3N2)c(O)c2cccnc2n1CCC1CC1`, the IC50 in the data set on Hepatitis C virus [1] turned out to be 2.7 µM.

As for `N#Cc1cccc(Cn2c(=O)c(C3=CS(=O)(=O)c4ccccc4N3)c(O)c3cc(F)ccc32)c1`, the IC50 in the data set on Hepatitis C virus [1] was 37 µM.

With `CC(C)CCn1c(=O)c(C2=CS(=O)(=O)c3ccccc3N2)c(O)c2cccnc21`, in the data set on Hepatitis C virus [1], it took 1.4 µM to reach half-maximal inhibition (IC50).

Turning to `O=c1c(C2=CS(=O)(=O)c3ccccc3N2)c(O)c2ccccc2n1Cc1ccc(F)cc1`, in the data set with Hepatitis C virus [2], the EC50 amounted to 790 nM. Besides, in data set [3], the Papp came out at 4.4 ×10⁻⁶ cm/s. In the data set on Hepatitis C virus [1], this compound returned an IC50 of 0.72 µM.

On to `O=c1c(C2=CS(=O)(=O)c3ccccc3N2)c(O)c2cc(Cl)ccc2n1CCC1CC1`, for which the concentration giving a half-maximal response (EC50) in the data set on Hepatitis C virus [2] was 1600 nM. Moreover, the midpoint of inhibition in the data set on Hepatitis C virus [1], the IC50, lay at 2.4 µM.

For `Cc1cc(Cn2c(=O)c(C3=CS(=O)(=O)c4ccccc4N3)c(O)c3cc(F)ccc32)ccc1F`, the EC50 in the data set on Hepatitis C virus [2] is 800 nM. The Papp A→B in data set [4] turned out to be 0.5 ×10⁻⁶ cm/s. In addition, the Papp B→A in data set [5] came out at 5.3 ×10⁻⁶ cm/s. The compound further yielded a concentration for half-maximal inhibition (IC50) with Hepatitis C virus [1] of 0.4 µM.

In the data set on Hepatitis C virus [1], `Cc1c(-c2ccccc2)c(O)c(C2=CS(=O)(=O)c3ccccc3N2)c(=O)n1CCC(C)C` displayed an IC50 of 87 µM.

On to `CC(C)CCn1c(=O)c(C2=CS(=O)(=O)c3ccccc3N2)cc2ccccc21`, for which, in the data set on Hepatitis C virus [1], the IC50 stood at 868 µM.

Regarding `CC(C)CCn1c(=O)c(C2=NS(=O)(=O)c3ccccc3N2)cc2ccccc21`, the IC50 with Hepatitis C virus [1] was 682 µM.

Take `O=c1c(C2=CS(=O)(=O)c3ccccc3N2)c(O)c2ccccc2n1Cc1ccccc1F`: in the data set on Hepatitis C virus [2], the EC50 worked out at 46000 nM. For the same compound, the IC50 with Hepatitis C virus [1] turned out to be 17.5 µM.

Consider `CC(C)CCn1cc(C2=NS(=O)(=O)c3ccccc3N2)c(=O)c2ccccc21`, for which the IC50 in the data set with Hepatitis C virus [1] was greater than 1000 µM.

As for `Cc1ccc2c(c1)c(O)c(C1=CS(=O)(=O)c3ccccc3N1)c(=O)n2Cc1ccc(F)cc1`, the EC50 with Hepatitis C virus [2] worked out at 1500 nM. Moreover, in the data set with Hepatitis C virus [1], the IC50 is 1.5 µM.

As to `O=c1c(C2=CS(=O)(=O)c3ccccc3N2)c(O)c2cc(F)ccc2n1Cc1ccc(F)cc1`, the EC50 in the data set on Hepatitis C virus [2] amounted to 700 nM. The compound also showed an IC50 in the data set with Hepatitis C virus [1] of 0.7 µM.

Consider `O=c1c(C2=CS(=O)(=O)c3ccccc3N2)c(O)c2cc(F)ccc2n1CCC1CC1`, for which the EC50 in the data set with Hepatitis C virus [2] stood at 1200 nM. In addition, in data set [4], the Papp A→B was 0.6 ×10⁻⁶ cm/s. The Papp B→A in data set [5] stood at 7.1 ×10⁻⁶ cm/s. Further, the Papp in data set [3] is 6.4 ×10⁻⁶ cm/s. Further, half-maximal inhibition in the data set with Hepatitis C virus [1] (IC50) required 1.1 µM.

For the compound `COc1ccc2c(c1)c(O)c(C1=CS(=O)(=O)c3ccccc3N1)c(=O)n2CCC1CC1`, the half-maximal effective concentration (EC50) in the data set with Hepatitis C virus [2] came to 7100 nM. Besides, the IC50 in the data set with Hepatitis C virus [1] was found to be 3.8 µM.

Take `O=c1c(C2=CS(=O)(=O)c3ccccc3N2)c(O)c2cc(F)ccc2n1Cc1ccc(F)c(F)c1`: in the data set with Hepatitis C virus [2], the EC50 came out at 1500 nM. In the data set on Hepatitis C virus [1], this compound had a concentration for half-maximal inhibition (IC50) of 1.2 µM.

On to `O=S1(=O)C=C(c2nc(Cc3ccc(F)cc3)c3ccccc3c2O)Nc2ccccc21`, for which the EC50 with Hepatitis C virus [2] is 7600 nM. In the data set with Hepatitis C virus [1], this compound had an IC50 of 6.9 µM.

For `CC(C)CCn1c(=O)c(C2=CS(=O)(=O)c3ccccc3N2)c(O)c2cc(F)cnc21`, the EC50 with Hepatitis C virus [2] stood at 8600 nM. In the data set on Hepatitis C virus [1], this compound came in with an IC50 of 0.83 µM.

As for `O=c1c(C2=Nc3ccccc3S(=O)(=O)N2)c(O)c2cc(F)ccc2n1CCC1CC1`, the EC50 with Hepatitis C virus [2] came out at 260 nM. Moreover, the IC50 in the data set with Hepatitis C virus [6] was 10 nM; in the data set with Hepatitis C virus [7], 40 nM; with Hepatitis C virus [1], 0.1 µM.

As for `CC(C)CCn1c(=O)c(C2=CS(=O)(=O)c3ccccc3N2)c(O)c2ccccc21`, in the data set with Hepatitis C virus [2], the EC50 was 2500 nM. In the data set with Hepatitis C virus [1], the IC50 was 2.3 µM.

For the compound `Cc1ccc2c(c1)c(O)c(C1=CS(=O)(=O)c3ccccc3N1)c(=O)n2CCC1CC1`, the EC50 in the data set on Hepatitis C virus [2] came to 640 nM. The Papp in data set [3] worked out at 9.4 ×10⁻⁶ cm/s. The compound further came in with an IC50 in the data set on Hepatitis C virus [1] of 1.3 µM.

Take `CC(C)CCn1c(=O)c(C2=NS(=O)(=O)c3ccccc3N2)c(O)c2ccccc21`: in the data set with Hepatitis C virus [2], the EC50 came to 870 nM. The IC50 in the data set on Hepatitis C virus [6] was determined as 30 nM; in the data set on Hepatitis C virus [1], 1.1 µM.

With `CN1C(c2nc(Cc3ccc(F)cc3)c3ccccc3c2O)=CS(=O)(=O)c2ccccc21`, the midpoint of inhibition with Hepatitis C virus [1], the IC50, lay at 19.5 µM.

Take `O=S1(=O)N=C(c2nc(Cc3ccc(F)cc3)c3ccccc3c2O)c2ccccc21`: the EC50 in the data set on Hepatitis C virus [2] stood at 440 nM. 2.2 µM corresponded to half-maximal inhibition in the data set with Hepatitis C virus [1] (IC50).
